Results from ChEMBL document CHEMBL4130341 (Medchemcomm, 2016).
Active and inactive are the calls of the source. The calls are words filed in the database; no cut-off is given here.

Molecular target: T1, Nuclear factor erythroid 2-related factor 2 (Mus musculus) (UniProt Q60795)
T1 sequence (whole entry): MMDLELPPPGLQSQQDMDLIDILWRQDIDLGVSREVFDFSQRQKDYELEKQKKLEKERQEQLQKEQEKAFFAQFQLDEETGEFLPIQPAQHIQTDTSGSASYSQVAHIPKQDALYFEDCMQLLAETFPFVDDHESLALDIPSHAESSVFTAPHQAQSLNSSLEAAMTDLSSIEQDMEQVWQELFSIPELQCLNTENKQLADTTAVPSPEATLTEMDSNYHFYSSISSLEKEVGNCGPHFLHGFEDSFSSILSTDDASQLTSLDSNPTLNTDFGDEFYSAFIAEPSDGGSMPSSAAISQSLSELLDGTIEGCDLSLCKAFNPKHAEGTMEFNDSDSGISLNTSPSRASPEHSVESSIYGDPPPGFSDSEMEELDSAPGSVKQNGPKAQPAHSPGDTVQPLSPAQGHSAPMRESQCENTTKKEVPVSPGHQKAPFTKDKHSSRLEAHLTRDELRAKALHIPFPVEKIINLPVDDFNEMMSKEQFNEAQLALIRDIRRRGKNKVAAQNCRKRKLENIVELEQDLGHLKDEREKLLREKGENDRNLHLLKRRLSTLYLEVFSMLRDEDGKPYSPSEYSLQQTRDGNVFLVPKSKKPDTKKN
Experiment: Activation of Nrf2 in mutant mouse BpRc1 cells cytosolic fraction assessed as induction of quinone reductase activity at 10 uM using 2,6-DCIP as substrate in presence of NADH incubated for 48 hrs measured for 1 min relative to control
Format: cell-based
Details: not given

SMILES | fold change (FC)
O=C(CC(CC(=O)c1ccccc1)c1cccc2ccccc12)c1ccccc1 | 2.38
O=C(/C=C/c1ccc2ccccc2c1)c1c(O)ccc2ccccc12 | 0.79
O=C(/C=C/c1ccccc1)c1ccc2ccccc2c1O | 0.57
O=C(/C=C/c1ccnc2ccccc12)c1ccc2ccccc2c1 | 1.25
O=C(CC(O)c1ccccc1)c1c(O)ccc2ccccc12 (stereo not drawn) | 1.14
O=C(/C=C/c1ccnc2ccccc12)c1ccc2ccccc2c1O | 0.85
O=C(/C=C/c1cccc(Br)n1)c1ccccc1O | 1.18
O=C(/C=C/c1ccccc1)c1cccc2ccccc12 | 1.13
O=C(/C=C/c1ccnc2ccccc12)c1ccccc1O | 1.34
O=C(/C=C/c1cncc(Br)c1)c1ccc2ccccc2c1O | 1.13
O=c1cc(-c2ccc(Br)cc2)oc2ccccc12 | 1.49
O=C(/C=C/c1cccc2ccccc12)c1c(O)ccc2ccccc12 | 0.82

Molecular target: T1, Nuclear factor erythroid 2-related factor 2 (Mus musculus)
Experiment: Activation of Nrf2 in wild type mouse Hepa1c1c7 cells cytosolic fraction assessed as induction of quinone reductase activity using 2,6-DCIP as substrate in presence of NADH incubated for 48 hrs measured for 1 min
Details: not given

CD | SMILES
0.79 µM | O=c1cc(-c2ccc(Br)cc2)oc2ccccc12

Test system: HK-2
Experiment: Genotoxicity in human HK2 cells assessed as induction of DNA strand breakage at 20 uM after 6 hrs by DAPI staining based alkaline comet assay
Format: toxicity, cell-based
Details: hk-2, 6 h

SMILES | Activity
O=C(/C=C/c1ccc2ccccc2c1)c1c(O)ccc2ccccc12 | Non-Toxic
O=C(/C=C/c1cccc(Br)n1)c1ccccc1O | Non-Toxic
O=C(/C=C/c1ccccc1)c1cccc2ccccc12 | Non-Toxic
O=C(/C=C/c1cncc(Br)c1)c1ccc2ccccc2c1O | Non-Toxic
O=C(/C=C/c1cccc2ccccc12)c1c(O)ccc2ccccc12 | Non-Toxic

Test system: HT-29
Experiment: Cytotoxicity against human HT-29 cells assessed as cell survival at 100 uM after 24 hrs by SRB assay relative to control
Format: functional
Details: HT-29, 24 h, read-out: Survival

SMILES | viability at 100 µM
O=C(/C=C/c1cccc(Br)n1)c1ccccc1O | < 50%
O=C(/C=C/c1ccccc1)c1cccc2ccccc12 | < 50%
O=C(/C=C/c1cccc2ccccc12)c1c(O)ccc2ccccc12 | < 50%

Test system: TK-10
Experiment: Cytotoxicity against human TK10 cells assessed as cell survival after 24 hrs by SRB assay
Format: functional, cell-based
Details: TK-10, 24 h

SMILES | IC50
O=C(/C=C/c1cccc(Br)n1)c1ccccc1O | 18 µM
O=C(/C=C/c1ccccc1)c1cccc2ccccc12 | 20 µM

Test system: not listed separately
Experiment: Cytotoxicity against mutant mouse BpRc1 cells after 48 hrs by SRB assay
Format: functional, cell-based
Details: BPrc1, 48 h

SMILES | IC50
O=c1cc(-c2ccc(Br)cc2)oc2ccccc12 | 150 µM

Test system: not listed separately
Experiment: Cytotoxicity against wild type mouse Hepa1c1c7 cells after 48 hrs by SRB assay
Format: functional, cell-based
Details: Hepa-1c1c7, 48 h

SMILES | IC50
O=c1cc(-c2ccc(Br)cc2)oc2ccccc12 | 85 µM

Molecular target: T1, Nuclear factor erythroid 2-related factor 2 (Mus musculus)
Experiment: Activation of Nrf2 in mutant mouse BpRc1 cells cytosolic fraction assessed as induction of quinone reductase activity using 2,6-DCIP as substrate in presence of NADH incubated for 48 hrs measured for 1 min
Format: cell-based
Details: not given

CD | SMILES
80 µM | O=c1cc(-c2ccc(Br)cc2)oc2ccccc12

Test system: Salmonella typhimurium
Experiment: Mutagenicity in Salmonella typhimurium TA98 in presence of mouse liver S9 fraction by Ames test
Format: toxicity, organism-based
Details: salmonella enterica subsp. enterica serovar typhimurium

SMILES | Activity
O=C(CC(CC(=O)c1ccccc1)c1cccc2ccccc12)c1ccccc1 | Non-Toxic
O=C(/C=C/c1ccc2ccccc2c1)c1c(O)ccc2ccccc12 | Non-Toxic
O=C(/C=C/c1ccnc2ccccc12)c1ccc2ccccc2c1 | Non-Toxic
O=C(/C=C/c1cccc(Br)n1)c1ccccc1O | Non-Toxic
O=C(/C=C/c1ccccc1)c1cccc2ccccc12 | Non-Toxic
O=C(/C=C/c1ccnc2ccccc12)c1ccccc1O | Non-Toxic
O=C(/C=C/c1cncc(Br)c1)c1ccc2ccccc2c1O | Non-Toxic
O=C(/C=C/c1cccc2ccccc12)c1c(O)ccc2ccccc12 | Non-Toxic

Test system: MCF7
Experiment: Cytotoxicity against human MCF7 cells assessed as cell survival at 100 uM after 24 hrs by SRB assay relative to control
Format: functional
Details: not given

SMILES | Activity
O=C(CC(CC(=O)c1ccccc1)c1cccc2ccccc12)c1ccccc1 | Active
O=C(/C=C/c1ccc2ccccc2c1)c1c(O)ccc2ccccc12 | Active
O=C(/C=C/c1ccnc2ccccc12)c1ccc2ccccc2c1 | Active
O=C(CC(O)c1ccccc1)c1c(O)ccc2ccccc12 (stereo not drawn) | Active
O=C(/C=C/c1ccnc2ccccc12)c1ccc2ccccc2c1O | Active
O=C(/C=C/c1cncc(Br)c1)c1ccc2ccccc2c1O | Active

Same assay, conditions: MCF7, 24 h, read-out: Survival

SMILES | viability at 100 µM
O=C(/C=C/c1cccc(Br)n1)c1ccccc1O | < 50%
O=C(/C=C/c1ccccc1)c1cccc2ccccc12 | < 50%
O=C(/C=C/c1cccc2ccccc12)c1c(O)ccc2ccccc12 | < 50%

Molecular target: T1, Nuclear factor erythroid 2-related factor 2 (Mus musculus)
Experiment: Ratio of activation of wild type Nrf2 in mouse Hepa1c1c7 cells cytosolic fraction to activation of Nrf2 in mutant mouse BpRc1 cells cytosolic fraction
Format: cell-based
Details: not given

SMILES | Ratio
O=C(CC(CC(=O)c1ccccc1)c1cccc2ccccc12)c1ccccc1 | 0.4
O=C(/C=C/c1ccc2ccccc2c1)c1c(O)ccc2ccccc12 | 2.2
O=C(/C=C/c1ccnc2ccccc12)c1ccc2ccccc2c1 | 1
O=C(CC(O)c1ccccc1)c1c(O)ccc2ccccc12 (stereo not drawn) | 2.9
O=C(/C=C/c1cccc(Br)n1)c1ccccc1O | 1
O=C(/C=C/c1ccccc1)c1cccc2ccccc12 | 0.9
O=C(/C=C/c1ccnc2ccccc12)c1ccccc1O | 4
O=C(/C=C/c1cncc(Br)c1)c1ccc2ccccc2c1O | 2
O=c1cc(-c2ccc(Br)cc2)oc2ccccc12 | 2.99
O=C(/C=C/c1cccc2ccccc12)c1c(O)ccc2ccccc12 | 1.6

Test system: not listed separately
Experiment: Ratio of IC50 for cytotoxicity against mutant mouse BpRc1 cells to CD for activation of Nrf2 in mutant mouse BpRc1 cells cytosolic fraction
Details: not given

SMILES | Ratio
O=c1cc(-c2ccc(Br)cc2)oc2ccccc12 | 1.9

Molecular target: T1, Nuclear factor erythroid 2-related factor 2 (Mus musculus)
Experiment: Activation of Nrf2 in wild type mouse Hepa1c1c7 cells cytosolic fraction assessed as induction of quinone reductase activity at 10 uM using 2,6-DCIP as substrate in presence of NADH incubated for 48 hrs measured for 1 min relative to control
Details: not given

SMILES | fold change (FC)
O=C(CC(CC(=O)c1ccccc1)c1cccc2ccccc12)c1ccccc1 | 0.83
O=C(/C=C/c1ccc2ccccc2c1)c1c(O)ccc2ccccc12 | 1.76
O=C(/C=C/c1ccccc1)c1ccc2ccccc2c1O | 3.04
O=C(/C=C/c1ccnc2ccccc12)c1ccc2ccccc2c1 | 1.28
O=C(CC(O)c1ccccc1)c1c(O)ccc2ccccc12 (stereo not drawn) | 3.31
O=C(/C=C/c1ccnc2ccccc12)c1ccc2ccccc2c1O | 1.48
O=C(/C=C/c1cccc(Br)n1)c1ccccc1O | 1.23
O=C(/C=C/c1ccccc1)c1cccc2ccccc12 | 0.98
O=C(/C=C/c1ccnc2ccccc12)c1ccccc1O | 5.42
O=C(/C=C/c1cncc(Br)c1)c1ccc2ccccc2c1O | 2.3
O=c1cc(-c2ccc(Br)cc2)oc2ccccc12 | 4.45
O=C(/C=C/c1cccc2ccccc12)c1c(O)ccc2ccccc12 | 1.29

Molecular target: T1, Nuclear factor erythroid 2-related factor 2 (Mus musculus)
Experiment: Ratio of CD for activation of Nrf2 in mutant mouse BpRc1 cells cytosolic fraction to CD for activation of Nrf2 in wild type mouse Hepa1c1c7 cells cytosolic fraction
Format: cell-based
Details: not given

Ratio | SMILES
101 | O=c1cc(-c2ccc(Br)cc2)oc2ccccc12

Test system: not listed separately
Experiment: Ratio of IC50 for cytotoxicity against wild type mouse Hepa1c1c7 cells to CD for activation of Nrf2 in wild type mouse Hepa1c1c7 cells cytosolic fraction
Details: not given

SMILES | Ratio
O=c1cc(-c2ccc(Br)cc2)oc2ccccc12 | 107
